Measurements published in article PMC11811597, “Phenomics‐Based Discovery of Novel Orthosteric Choline Kinase Inhibitors” (Angewandte Chemie (International Ed. in English), 2025).

Target: T1, EHMT2 (G9a) (Homo sapiens, UniProt Q96KQ7)
T1 sequence (Q96KQ7 1-1210): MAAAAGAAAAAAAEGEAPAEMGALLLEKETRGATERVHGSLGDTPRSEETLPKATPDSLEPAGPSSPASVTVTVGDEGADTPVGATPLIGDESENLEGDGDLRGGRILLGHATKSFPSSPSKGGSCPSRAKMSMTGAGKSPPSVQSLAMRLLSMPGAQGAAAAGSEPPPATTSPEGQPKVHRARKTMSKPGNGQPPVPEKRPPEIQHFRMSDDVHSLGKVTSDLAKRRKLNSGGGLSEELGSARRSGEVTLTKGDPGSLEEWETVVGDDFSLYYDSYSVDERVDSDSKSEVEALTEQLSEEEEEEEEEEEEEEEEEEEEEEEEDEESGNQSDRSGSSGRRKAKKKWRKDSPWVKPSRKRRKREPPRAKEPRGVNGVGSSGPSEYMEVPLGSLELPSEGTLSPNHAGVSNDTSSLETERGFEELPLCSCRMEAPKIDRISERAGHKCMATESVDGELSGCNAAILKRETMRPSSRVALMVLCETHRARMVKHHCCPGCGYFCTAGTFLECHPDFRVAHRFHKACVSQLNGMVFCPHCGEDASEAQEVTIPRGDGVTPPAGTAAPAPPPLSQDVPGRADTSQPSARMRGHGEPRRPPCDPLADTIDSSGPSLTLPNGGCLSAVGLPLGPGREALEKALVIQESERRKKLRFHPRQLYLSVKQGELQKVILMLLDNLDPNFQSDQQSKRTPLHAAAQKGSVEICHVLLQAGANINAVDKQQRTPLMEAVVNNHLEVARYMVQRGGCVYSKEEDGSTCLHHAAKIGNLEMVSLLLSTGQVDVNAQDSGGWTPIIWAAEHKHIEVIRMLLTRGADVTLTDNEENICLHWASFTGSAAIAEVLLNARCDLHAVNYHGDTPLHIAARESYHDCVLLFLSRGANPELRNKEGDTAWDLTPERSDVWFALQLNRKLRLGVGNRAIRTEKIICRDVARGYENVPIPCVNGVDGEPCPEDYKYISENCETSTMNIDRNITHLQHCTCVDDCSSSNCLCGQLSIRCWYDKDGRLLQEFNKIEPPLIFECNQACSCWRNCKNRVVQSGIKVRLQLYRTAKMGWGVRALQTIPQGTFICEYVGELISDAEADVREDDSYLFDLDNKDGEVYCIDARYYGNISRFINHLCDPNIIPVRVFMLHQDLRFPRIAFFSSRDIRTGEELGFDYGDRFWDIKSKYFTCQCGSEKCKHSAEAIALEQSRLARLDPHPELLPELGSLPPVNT
Assay: Competitive affinity-based chemoproteomics (UNC0965 matrix), MCF7 lysate
Assay type: binding
Parameters: endogenous in cells; host or cells: MCF7 whole cell lysate
Conditions: MCF7 lysates, 20 μM competitor
Protocol: A-366 and UNC0638 were purchased from Tocris. ARIAD and V-11-07-11 were purchased from Wuxi Apptec. UNC0737 and UNC0965 were synthesised as previously described.[1] Hemicholinium-3 and pyruvate kinase/lactic dehydrogenase enzymes were purchased from Sigma Aldrich. Aqueous and organic solvents were MS-grade and acquired by Sigma Aldrich unless stated otherwise.
MDA-MB-231, MCF7 and HEK293 cells were cultured in DMEM (Gibco, #11965092) supplemented with 10% FBS. K562 were cultured in IMDM (Gibco, #12440053) supplemented with 10% FBS. HepG2 were cultured in MEM (Gibco, #11095080) supplemented with 10 % FBS. […]
cultured in McCoy’s 5A (Sigma, M8403) supplemented with 10 % FBS and 1x GlutaMAX (Gibco, #35050061). Cells were maintained at 37 °C in a humidified 5% CO2 atmosphere. Peripheral blood mononuclear cells (PBMC) were isolated from healthy blood donors by density centrifugation. […]
Cell Titer-Glo® reagent was added to each well and total luminescence readings were performed within 15 min using the PHERAstar FSX (BMG Labtech). […]
Digested samples were analysed by nano-UPLC–MS/MS using a Dionex Ultimate 3000 nano UPLC fitted with an EASY spray column (75 μm × 500 mm, 2 μm particle size, Thermo Scientific), coupled to an Orbitrap Q Exactive instrument. […]

SMILES	competition for EHMT2 (G9a) binding to affinity matrix
COc1cc2c(NC3CCN(C(C)C)CC3)nc(C3CCCCC3)nc2cc1OCCCN1CCCC1 [UNC0638]	strong enrichment and competition
COc1cc2c(N(C)C3CCN(C(C)C)CC3)nc(C3CCCCC3)nc2cc1OCCCN1CCCC1 [UNC0737]	did not ablate binding
